# Tests used:
# [1] = biological target: T1, HCV NS5B RdRp genotype 1b (Hepatitis C virus genotype 1b, UniProt Q9WMX2); experiment: Modified HCV NS5B RdRp enzyme assay (with preincubation); type: biochemical; settings: modified method (with preincubation)
# T1 construct: The protein was expressed with an 18 amino acid C-terminal truncation to enhance the solubility; made in house; host or cells: E. coli BL21 (DE3), pET21a
# Outline: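 Seven-point IC50s were derived from SPA-based ³H-UTP incorporation after 4 h at 30 °C (Hepes pH 7.5, 2% DMSO). Compound was first mixed with 14 nM Δ18 NS5B genotype 1b enzyme. Then 0.2 nM polyA, 0.29 μM UTP and bead-bound oligo-dT12 (20 nM) were added.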
# HCV replicon = HCV replicon FRET assay; type: cell-based; settings: Hepatitis C virus; FRET assay; read-out: EC50
# Outline: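 Replicon cells (± Renilla luciferase reporter) incubated with titrated compound at 37 °C; NS3 protease activity read by FRET peptide cleavage (20 uM EDANS/DABCYL substrate, 340/490 nm kinetic) or luciferase.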
# T1 sequence (Q9WMX2 2420-2992): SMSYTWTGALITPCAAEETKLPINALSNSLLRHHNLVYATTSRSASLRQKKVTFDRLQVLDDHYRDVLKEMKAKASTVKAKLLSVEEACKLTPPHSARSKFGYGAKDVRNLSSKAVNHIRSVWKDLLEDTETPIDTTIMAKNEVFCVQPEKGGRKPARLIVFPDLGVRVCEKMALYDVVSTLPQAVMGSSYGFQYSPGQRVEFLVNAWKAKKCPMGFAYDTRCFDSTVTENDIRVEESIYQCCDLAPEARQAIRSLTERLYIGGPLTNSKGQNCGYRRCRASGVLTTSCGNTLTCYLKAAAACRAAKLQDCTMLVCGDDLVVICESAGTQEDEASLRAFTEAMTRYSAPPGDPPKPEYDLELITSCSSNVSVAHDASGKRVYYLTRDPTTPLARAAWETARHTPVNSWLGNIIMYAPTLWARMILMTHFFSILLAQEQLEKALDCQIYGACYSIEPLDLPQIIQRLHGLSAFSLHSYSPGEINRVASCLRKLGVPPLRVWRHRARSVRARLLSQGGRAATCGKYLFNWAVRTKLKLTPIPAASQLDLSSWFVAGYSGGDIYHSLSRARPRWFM
Compound,IC50 [1] [µM],EC50 (HCV replicon) [µM]
O=C(O)/C=C/c1ccc(NC(=O)C2(NC(=O)c3ccc4c(C5CCCCC5)c5n(c4c3)CC(=O)Nc3ccccc3-5)CCCC2)cc1,0.02 to 1,0.01 to 1
O=C(O)/C=C/c1ccc(NC(=O)C2(NC(=O)c3ccc4c(C5CCCCC5)c5n(c4c3)CC(C(=O)N3CCN(c4ccncc4)CC3)Cc3ccccc3-5)CCCC2)cc1 (centres unmarked),0.02 to 1,0.01 to 1
COC(=O)/C=C/c1ccc(NC(=O)C2(NC(=O)c3ccc4c(C5CCCCC5)c5n(c4c3)C[C@@H](O)[C@@H](O)c3ncccc3-5)CCCC2)cc1,0.02 to 1,0.01 to 1
O=C(O)/C=C/c1ccc(NC(=O)C2(NC(=O)c3ccc4c(C5CCCCC5)c5n(c4c3)C[C@@H](O)[C@@H](O)c3ncccc3-5)CCCC2)cc1,0.02 to 1,0.01 to 1
COC(=O)c1ccc2c(C3CCCCC3)c3n(c2c1)C[C@@H](O)[C@@H](O)c1ccccc1-3,> 1,1 to 10
O=C(O)c1ccc2c(C3CCCCC3)c3n(c2c1)C[C@@H](O)[C@@H](O)c1ccccc1-3,0.02 to 1,1 to 10
CN(C(=O)c1ccc2c(C3CCCCC3)c3n(c2c1)CCCc1ccccc1-3)C1(C(=O)O)CCCC1,0.02 to 1,> 10
CN(C)S(=O)(=O)NC(=O)c1ccc2c(C3CCCCC3)c3n(c2c1)C[C@@H](O)[C@@H](O)c1ccccc1-3,> 1,0.01 to 1
COC(=O)/C=C/c1ccc(NC(=O)C2(NC(=O)c3ccc4c(C5CCCCC5)c5n(c4c3)C[C@@H](O)[C@@H](O)c3ccccc3-5)CCCC2)cc1,0.02 to 1,< 0.1
O=C1Cc2ccccc2-c2c(C3CCCCC3)c3ccc(C(=O)O)cc3n2C1,0.02 to 1,1 to 10
O=C(O)/C=C/c1ccc(NC(=O)C2(NC(=O)c3ccc4c(C5CCCCC5)c5n(c4c3)C[C@@H](O)[C@@H](O)c3ccccc3-5)CCCC2)cc1,0.02 to 1,0.01 to 1
COC(=O)c1ccc2c(C3CCCCC3)c3n(c2c1)CC(O)Cc1ccccc1-3 (centres unmarked),> 1,0.01 to 1
CN(C)S(=O)(=O)NC(=O)c1ccc2c(C3CCCCC3)c3n(c2c1)CC=Cc1ncccc1-3,0.02 to 1,1 to 10
CN(C)S(=O)(=O)NC(=O)c1ccc2c(C3CCCCC3)c3n(c2c1)C[C@@H](O)[C@@H](O)c1ncccc1-3,0.02 to 1,> 10
O=C(O)c1ccc2c(C3CCCCC3)c3n(c2c1)CC(O)Cc1ccccc1-3 (centres unmarked),0.02 to 1,1 to 10
COC(=O)/C=C/c1ccc(NC(=O)C2(NC(=O)c3ccc4c(C5CCCCC5)c5n(c4c3)CC(=O)Cc3ccccc3-5)CCCC2)cc1,> 1,0.01 to 1
COC(=O)c1ccc2c(C3CCCCC3)c3n(c2c1)C/C(=N/O)Cc1ccccc1-3,> 1,0.01 to 1
O=C(O)c1ccc2c(C3CCCCC3)c3n(c2c1)C/C(=N/O)Cc1ccccc1-3,0.02 to 1,1 to 10
Cn1cnc(S(=O)(=O)NC(=O)c2ccc3c(C4CCCCC4)c4n(c3c2)CC=Cc2ncccc2-4)c1,0.02 to 1,> 10
Cn1cnc(S(=O)(=O)NC(=O)c2ccc3c(C4CCCCC4)c4n(c3c2)C[C@@H](O)[C@@H](O)c2ncccc2-4)c1,0.02 to 1,> 10
CS(=O)(=O)NC(=O)c1ccc2c(C3CCCCC3)c3n(c2c1)CC=Cc1ncccc1-3,0.02 to 1,> 10
O=C(NS(=O)(=O)c1ccccc1)c1ccc2c(C3CCCCC3)c3n(c2c1)CC=Cc1ncccc1-3,0.02 to 1,> 10
O=C(NS(=O)(=O)Cc1ccccc1)c1ccc2c(C3CCCCC3)c3n(c2c1)CC=Cc1ncccc1-3,0.02 to 1,1 to 10
COC(=O)c1ccc2c(C3CCCCC3)c3n(c2c1)CC(CO)Cc1ccccc1-3 (centres unmarked),> 1,0.01 to 1
O=C(O)c1ccc2c(C3CCCCC3)c3n(c2c1)CC(CO)Cc1ccccc1-3 (centres unmarked),0.02 to 1,1 to 10
O=C(NS(=O)(=O)Cc1ccccc1)c1ccc2c(C3CCCCC3)c3n(c2c1)CCCc1ncccc1-3,0.02 to 1,1 to 10
O=C(NS(=O)(=O)c1ccccc1)c1ccc2c(C3CCCCC3)c3n(c2c1)C[C@@H](O)[C@@H](O)c1ncccc1-3,0.02 to 1,1 to 10
CN(C)S(=O)(=O)NC(=O)c1ccc2c(C3CCCCC3)c3n(c2c1)CC(O)Cc1ccccc1-3 (centres unmarked),0.02 to 1,0.01 to 1

Compound,IC50 [1] [µM],EC50 (HCV replicon) [µM]
CS(=O)(=O)NC(=O)c1ccc2c(C3CCCCC3)c3n(c2c1)CCCc1ncccc1-3,0.02 to 1,1 to 10
NC(=O)c1ccc2c(C3CCCCC3)c3n(c2c1)CCCc1ncccc1-3,0.02 to 1,1 to 10
O=C(NS(=O)(=O)C1CC1)c1ccc2c(C3CCCCC3)c3n(c2c1)CC=Cc1ncccc1-3,0.02 to 1,1 to 10
CN(C)S(=O)(=O)NC(=O)c1ccc2c(C3CCCCC3)c3n(c2c1)CC(C(=O)N1CCN(c2ccncc2)CC1)=Cc1ccccc1-3,0.02 to 1,0.01 to 1
COC(=O)c1ccc2c(C3CCCCC3)c3n(c2c1)CC(C#N)=Cc1ccccc1-3,> 1,1 to 10
COC(=O)c1ccc2c(C3CCCCC3)c3n(c2c1)C=C(C#N)Cc1ccccc1-3,> 1,0.01 to 1
N#CC1=Cn2c(c(C3CCCCC3)c3ccc(C(=O)O)cc32)-c2ccccc2C1,0.02 to 1,1 to 10
COC(=O)c1ccc2c(C3CCCCC3)c3n(c2c1)CC(C(=O)O)=Cc1ccccc1-3,0.02 to 1,0.01 to 1
CN(C)C(=O)c1ccc2c(C3CCCCC3)c3n(c2c1)CC(C(=O)N1CCOCC1)=Cc1ccccc1-3,0.02 to 1,1 to 10
COC(=O)c1ccc2c(C3CCCCC3)c3n(c2c1)CCCc1cc(OCc2cc([N+](=O)[O-])ccc2F)ccc1-3,> 1,1 to 10
COC(=O)/C=C/c1ccc(NC(=O)C2(NC(=O)c3ccc4c(C5CCCCC5)c5n(c4c3)CCCc3ncccc3-5)CCCC2)cc1,0.02 to 1,0.01 to 1
CN(C)S(=O)(=O)NC(=O)c1ccc2c(C3CCCCC3)c3n(c2c1)C[C@@H](C(=O)N1CCC(N2CCCC2)CC1)Cc1ccccc1-3,0.02 to 1,0.01 to 1
CN(C)S(=O)(=O)NC(=O)c1ccc2c(C3CCCCC3)c3n(c2c1)C[C@H](C(=O)N1CCC(N2CCCC2)CC1)Cc1ccccc1-3,0.02 to 1,0.01 to 1
O=C(C1=Cc2ccccc2-c2c(C3CCCCC3)c3ccc(C(=O)N4CCOCC4)cc3n2C1)N1CCOCC1,> 1,1 to 10
N#Cc1ccc2c(C3CCCCC3)c3n(c2c1)CCCc1ncccc1-3,> 1,0.01 to 1
c1cnc2c(c1)-c1c(C3CCCCC3)c3ccc(-c4nnn[nH]4)cc3n1CCC2,0.02 to 1,1 to 10
O=C(NS(=O)(=O)C1CC1)c1ccc2c(C3CCCCC3)c3n(c2c1)CCCc1ncccc1-3,0.02 to 1,0.01 to 1
O=C(NS(=O)(=O)c1ccccc1)c1ccc2c(C3CCCCC3)c3n(c2c1)CCCc1ncccc1-3,0.02 to 1,1 to 10
CN(C)S(=O)(=O)NC(=O)c1ccc2c(C3CCCCC3)c3n(c2c1)CCCc1ncccc1-3,0.02 to 1,0.01 to 1
Cn1cnc(S(=O)(=O)NC(=O)c2ccc3c(C4CCCCC4)c4n(c3c2)CCCc2ncccc2-4)c1,0.02 to 1,1 to 10
O=C(c1ccc2c(C3CCCCC3)c3n(c2c1)CC(C(=O)N1CCOCC1)Cc1ccccc1-3)N1CCOCC1 (centres unmarked),> 1,0.01 to 1
O=C(O)c1ccc2c(C3CCCCC3)c3c4ccccc4[nH]c(=O)n3c2c1,> 1,0.01 to 1
CN(C)S(=O)(=O)NC(=O)c1ccc2c(C3CCCCC3)c3n(c2c1)C[C@H](C(=O)N1CCOCC1)Cc1ccccc1-3,0.02 to 1,0.01 to 1
COC(=O)c1ccc2c(C3CCCCC3)c3n(c2c1)CC(C(=O)N(C)C)=Cc1ccccc1-3,> 1,1 to 10
CN(C)C(=O)C1=Cc2ccccc2-c2c(C3CCCCC3)c3ccc(C(=O)O)cc3n2C1,0.02 to 1,0.01 to 1
CN(C)C(=O)C1=Cc2ccccc2-c2c(C3CCCCC3)c3ccc(C(=O)NS(=O)(=O)N(C)C)cc3n2C1,0.02 to 1,0.01 to 1
COC(=O)c1ccc2c(C3CCCCC3)c3n(c2c1)CC(C(=O)O)=Cc1cc(OCc2ccccc2)ccc1-3,> 1,1 to 10

# — patent publication US7348425B2, “Inhibitors of HCV replication” (Bristol-Myers Squibb Company, priority 2004, dated 2008)
